# Results reported in patent US5075288A, “Somnogenic fragment of interleukin-1β” (The University of Tennessee Research Corporation, priority 1990, dated 1991).
# “Also recorded” adds a separate entry of the source. Residues, ends and D or L forms follow the SMILES beside them.
# Columns and labels:
# [1] = tested on: male, New Zealand white pasteurella-free rabbits; test: Rabbit sleep (EEG) and body temperature after ICV injection; format: in vivo; conditions: for Colonic Temperature Start: at the time of injection; for Colonic Temperature End: end of 6-h recording session; for NREMS / REMS: six-hour recording period
# Source text: A lateral cerebral ventricular guide cannula, a thermistor, and stainless steel screw electroencephalographic (EEG) electrodes were surgically implanted into male, New Zealand white pasteurella-free rabbits (about 3.5 kg). EEG electrodes were placed over the frontal and parietal cortices A 50,000 ohm calibrated thermistor (Model 4018, Omega Engineering, Stamford, Conn.) was implanted over the parietal cortex to measure brain temperature (Tbr). Insulated leads from the screws and the thermistor were routed to an amphenol plug attached to the skull with dental acrylic (DUZ-ALL, Coralite Dental Products, Skokie, Ill.). The guide cannula was placed in the left lateral cerebral ventricle. A minimum of two weeks was allowed for recovery before the animals were habituated to the recording chambers (Hotpack 352600, Philadelphia, Pa.). Food and water were available ad libitum. Each recording chamber contained an electronic swivel (Stoelting, Chicago, Ill.) suspended by a shock-absorbing system. A flexible tether connected the swivel to the Amphenol connector on the rabbit's head, thus allowing freedom of movement. An accelerometer (Grass, SPAI, Quincy, Mass.) attached to the shock-absorbing system provided an indication of body movement. The cables from the swivel and the accelerometer were connected to Grass 7D polygraphs in an adjacent room. The polygraphs recorded EEG, Tbr, and body movement for each animal. The EEG for each rabbit was passed through band-pass filters with the 0.5-3.5 Hz (delta), 4.0-7.5 Hz (theta), 8.0-12.5 Hz (alpha), and 13.0-15.0 Hz (beta) frequency bands rectified and averaged for 1-min intervals by a Buxco model 24/32 data logger (Buxco Electronics, Sharon, Conn.). These values for 1-min periods were used to compute hourly averages. EEG amplitudes in the delta frequency band during 1-min epochs of NREMS for each of the six postinjection hours were also determined. The 10 samples of greatest magnitude in each hour were averaged for each rabbit during control and test NREM sleep periods. […] Tbr S were also recorded using a data logger (Acrosystems 400, Beverly, Mass.), with values for each rabbit sampled at 10-min intervals. NREM sleep and REM sleep were measured as a percent of time over a six-hour recording period. Colonic temperatures (Tco) were taken with a flexible thermistor (YSI, Inc., Yellow Springs, Ohio) at the time of injection and at the end of 6-h recording session. IL1 fragments were dissolved in appropriate volumes of artificial cerebrospinal fluid (aCSF) (2 mM KC1, 1.15 mM CaCl2, and 0.96 mM MgCl2 in pyrogen free saline, […] NaCl [Abbott, N. Chicago, Ill.] Hu-rIL1β was supplied in phosphate-buffered saline (PBS) (0.4 mg/ml). All substances were injected into a lateral cerebral ventricle (ICV). Injection volumes were 12-25 μl per rabbit; each injection lasted about 2 min. Animals were injected between 0900 and 1000 h. Control recordings were obtained from each animal after injection of vehicle (aCSF). After injections, animals were recorded from the next 6 h. Data from all experiments were analyzed with the SPSS^x Information System. Friedman's test for k-related samples was used to test for differences across the 6-h recording periods. If significant differences were indicated, the Wilcoxon matched-pairs signed-ranks test was used to identify the specific hours in which the differences occurred. An alpha level of P<0.05 was accepted as indicating significance.
# Murine D10 Cells = test: T cell proliferation assay, [3H] thymidine incorporation in murine T cell line D10; format: cell-based, mouse
# Experimental: Thymus glands were removed from 6-10 week old CD1 mice after mice had been sacrificed by cervical dislocation. Thymocytes were isolated by gently homogenizing the thymus glands in a dounce homogenizer. Thymocytes were suspended in RPMI 1640 containing 7.5% FCS and 5×10-^6 M 2-mercaptoethanol. Aliquots of the cell suspension (100 μl) were dispensed into wells of flat bottom microtiter plates (Linbro Plastics), and samples (50 μl) suspended in RPMI 1640 were added to appropriate wells. Plates were incubated at 37° C., 5% CO2, in a humidified atmosphere for 60 h, and wells were pulsed with [^3 H] thymidine (1 μCi, […]) for 12h. After the 12-h pulse, cells were harvested onto paper filter pads with a multiple-sample harvester, and thymocyte proliferation was determined by scintillation counting. In some experiments, the murine T cell line D10 was used instead of thymocytes as target cells using phytohemmagglutinin (1 μg/ml) as costimulant.
molecule,measurement,setting,value
CC[C@H](C)[C@H](NC(=O)[C@H](CCC(=O)O)NC(=O)[C@@H](NC(=O)[C@H](CCCCN)NC(=O)[C@H](CC(N)=O)NC(=O)[C@H](Cc1ccccc1)NC(=O)[C@@H](NC(=O)[C@H](Cc1ccccc1)NC(=O)[C@H](CCCNC(=N)N)NC(=O)[C@H](CCCCN)NC(=O)[C@H](CCC(=O)O)NC(=O)[C@H](CCSC)NC(=O)[C@H](CCCCN)NC(=O)[C@H](CCCCN)NC(=O)[C@@H](N)CCCCN)C(C)C)[C@@H](C)CC)C(=O)N[C@@H](CC(N)=O)C(=O)N[C@@H](CC(N)=O)C(=O)N[C@@H](CCCCN)C(=O)N[C@@H](CC(C)C)C(=O)N[C@@H](CCC(=O)O)C(=O)N[C@@H](Cc1ccccc1)C(=O)N[C@@H](CCC(=O)O)C(=O)N[C@@H](CO)C(=O)N[C@@H](C)C(=O)N[C@@H](CCC(N)=O)C(=O)N[C@@H](Cc1ccccc1)C(=O)N1CCC[C@H]1C(=O)N[C@@H](CC(N)=O)C(=O)N[C@@H](Cc1c[nH]c2ccccc12)C(=O)N[C@@H](Cc1ccc(O)cc1)C(=O)N[C@H](C(=O)N[C@@H](CO)C(=O)N[C@H](C(=O)O)[C@@H](C)O)[C@@H](C)CC [Peptide 208-240] (H-KKKMEKRFVFNKIEINNKLEFESAQFPNWYIST-OH),abnormal behavior after injection,[1]; 25 μg ICV,no appearance of abnormal behavior; also recorded: did not appear to induce abnormal behavior
"199-228: synthetic fragment of IL1β, amino acids 199-228 (ESVDPKNYPKKKMEKRFVFNKIEINNKLEF; UniProt P01584 199-228, looked up, fragment) [Peptide 199-228]",T cell proliferation (in words),Murine D10 Cells; murine D10 cells (Table 2),stimulated T cell proliferation
same,"[3H] Thymidine Incorporation, Murine D10 Cells","Murine D10 Cells; standard deviation in, phytohemmagglutinin 1 μg/ml as costimulant",2799 (652) counts per minute
same,Colonic Temperature Start,[1]; 25 μg ICV,39.3 (0.1) °C
same,Colonic Temperature End,[1]; 25 μg ICV,39.4 (0.1) °C
same,NREMS,[1]; 25 μg ICV,50.9 (3.9) percent of time
same,REMS,[1]; 25 μg ICV,20.0 (1.2) percent of time
same,somnogenic and pyrogenic activity: effect on sleep or Tbr (in words),"[1]; ICV, doses of Table 3",failed to alter sleep or Tbr
"IL1β: Recombinant human IL1β prepared by Cistron Biotechnology, Incorporated",Colonic Temperature Start,[1]; 5 ng ICV,39.2 (0.0) °C
same,Colonic Temperature End,[1]; 5 ng ICV,40.0 (0.1) °C
same,NREMS,[1]; 5 ng ICV,53.3 (3.2) percent of time
same,REMS,[1]; 5 ng ICV,4.4 (0.8) percent of time
same,Colonic Temperature Start,[1]; 20 ng ICV,39.3 (0.1) °C
same,Colonic Temperature End,[1]; 20 ng ICV,41.0 (0.3) °C
same,NREMS,[1]; 20 ng ICV,61.5 (4.3) percent of time
same,REMS,[1]; 20 ng ICV,2.1 (0.6) percent of time
